According to ChEMBL document CHEMBL4680060, “Polybasic peptide-levofloxacin conjugates potentiate fluoroquinolones and other classes of antibiotics against multidrug-resistant Gram-negative bacteria” (Medchemcomm, 2019):
≈ marks a conversion by molar mass, not a printed value. Calls of active or inactive are those of the source. No cut-off for these calls is given here.

Tests used:
Escherichia coli [1] = experiment: Synergistic antibacterial activity against Escherichia coli 107115 in presence of moxifloxacin by Checkerboard assay; type: functional, organism-based
Pseudomonas aeruginosa [2] = experiment: Synergistic antibacterial activity against wild type Pseudomonas aeruginosa PAO1 in presence of ciprofloxacin by Checkerboard assay; type: functional, organism-based
Pseudomonas aeruginosa [3] = experiment: Synergistic antibacterial activity against multidrug resistant Pseudomonas aeruginosa PA262 in presence of levofloxacin by Checkerboard assay; type: functional, organism-based
Klebsiella pneumoniae [4] = experiment: Synergistic antibacterial activity against Klebsiella pneumoniae 116381 in presence of levofloxacin by Checkerboard assay; type: functional, organism-based
Pseudomonas aeruginosa [5] = experiment: Synergistic antibacterial activity against multidrug resistant Pseudomonas aeruginosa PA100036 in presence of ciprofloxacin by Checkerboard assay; type: functional, organism-based
Pseudomonas aeruginosa [6] = experiment: Antibacterial activity against Pseudomonas aeruginosa ATCC 27853 assessed as inhibition of visible growth incubated for 18 hrs by CLSI protocol based microbroth dilution method; type: functional
Klebsiella pneumoniae [7] = experiment: Synergistic antibacterial activity against Klebsiella pneumoniae 116381 in presence of ciprofloxacin by Checkerboard assay; type: functional, organism-based
Pseudomonas aeruginosa [8] = experiment: Synergistic antibacterial activity against multidrug resistant Pseudomonas aeruginosa PA262 in presence of ciprofloxacin by Checkerboard assay; type: functional, organism-based
Pseudomonas aeruginosa [9] = experiment: Additive antibacterial activity against MexAB-OprM, MexCD-OprJ, MexEF-OprN, MexJK and MexXY efflux pumps deficient Pseudomonas aeruginosa PAO750 in presence of ciprofloxacin by Checkerboard assay; type: functional, organism-based
Enterococcus faecalis = experiment: Antibacterial activity against Enterococcus faecalis ATCC 29212 assessed as inhibition of visible growth incubated for 18 hrs by CLSI protocol based microbroth dilution method; type: functional
[10] = Hemolytic activity in pig erythrocyte at 512 ug/ml incubated for 1 hr by microplate reader assay relative to control; type: ADME, cell-based, Sus scrofa; details: pig erythrocytes, at 512 µg/mL, read-out: Activity
Pseudomonas aeruginosa [11] = experiment: Synergistic antibacterial activity against wild type Pseudomonas aeruginosa PAO1 assessed as fractional inhibitory concentration index in presence of moxifloxacin by Checkerboard assay; type: functional
Pseudomonas aeruginosa [12] = experiment: Potentiation of vancomycin-induced antibacterial activity against wild type Pseudomonas aeruginosa PAO1 measured after 18 hrs by CLSI protocol based microbroth dilution method; type: functional, organism-based
Pseudomonas aeruginosa [13] = experiment: Synergistic antibacterial activity against multidrug resistant Pseudomonas aeruginosa PA101885 in presence of levofloxacin by Checkerboard assay; type: functional, organism-based
Pseudomonas aeruginosa [14] = experiment: Synergistic antibacterial activity against multidrug resistant Pseudomonas aeruginosa PA260 in presence of levofloxacin by Checkerboard assay; type: functional, organism-based
Pseudomonas aeruginosa [15] = experiment: Potentiation of minocycline-induced antibacterial activity against wild type Pseudomonas aeruginosa PAO1 measured after 18 hrs by CLSI protocol based microbroth dilution method; type: functional, organism-based
Escherichia coli [16] = experiment: Synergistic antibacterial activity against Escherichia coli 94474 in presence of levofloxacin by Checkerboard assay; type: functional, organism-based
Pseudomonas aeruginosa [17] = experiment: Potentiation of ciprofloxacin-induced antibacterial activity against wild type Pseudomonas aeruginosa PAO1 assessed as ciprofloxacin MIC measured after 18 hrs by CLSI protocol based microbroth dilution method (reference value: 0.125 ug/ml); type: functional
Escherichia coli [18] = experiment: Antibacterial activity against Escherichia coli ATCC 25922 assessed as inhibition of visible growth incubated for 18 hrs by CLSI protocol based microbroth dilution method; type: functional
Escherichia coli [19] = experiment: Additive antibacterial activity against Escherichia coli 94393 in presence of ciprofloxacin by Checkerboard assay; type: functional, organism-based
Enterobacter cloacae = experiment: Antibacterial activity against Enterobacter cloacae 117029 assessed as inhibition of visible growth incubated for 18 hrs by CLSI protocol based microbroth dilution method; type: functional
Pseudomonas aeruginosa [20] = experiment: Potentiation of aztreonam-induced antibacterial activity against wild type Pseudomonas aeruginosa PAO1 measured after 18 hrs by CLSI protocol based microbroth dilution method; type: functional, organism-based
Pseudomonas aeruginosa [21] = experiment: Synergistic antibacterial activity against multidrug resistant Pseudomonas aeruginosa PA100036 in presence of moxifloxacin by Checkerboard assay; type: functional, organism-based
Escherichia coli [22] = experiment: Synergistic antibacterial activity against Escherichia coli 94474 in presence of moxifloxacin by Checkerboard assay; type: functional, organism-based
Staphylococcus aureus = experiment: Antibacterial activity against methicillin-resistant Staphylococcus aureus clinical isolate CAN-ICU 61589 assessed as inhibition of visible growth incubated for 18 hrs by CLSI protocol based microbroth dilution method; type: functional
Pseudomonas aeruginosa [23] = experiment: Potentiation of moxifloxacin-induced antibacterial activity against wild type Pseudomonas aeruginosa PAO1 assessed as moxifloxacin MIC measured after 18 hrs by CLSI protocol based microbroth dilution method (reference value: 1 ug/ml); type: functional
Pseudomonas aeruginosa [24] = experiment: Additive antibacterial activity against MexAB-OprM efflux pump deficient Pseudomonas aeruginosa PAO200 in presence of ciprofloxacin by Checkerboard assay; type: functional, organism-based
Klebsiella pneumoniae [25] = experiment: Antibacterial activity against Klebsiella pneumoniae 116381 assessed as inhibition of visible growth incubated for 18 hrs by CLSI protocol based microbroth dilution method; type: functional
Pseudomonas aeruginosa [26] = experiment: Potentiation of ciprofloxacin-induced antibacterial activity against wild type Pseudomonas aeruginosa PAO1 assessed as fold reduction in ciprofloxacin MIC measured after 18 hrs by CLSI protocol based microbroth dilution method relative to ciprofloxacin MIC; type: functional
Escherichia coli [27] = experiment: Synergistic antibacterial activity against Escherichia coli 94393 in presence of levofloxacin by Checkerboard assay; type: functional, organism-based
Escherichia coli [28] = experiment: Additive antibacterial activity against Escherichia coli ATCC 25922 in presence of ciprofloxacin by Checkerboard assay; type: functional, organism-based
Pseudomonas aeruginosa [29] = experiment: Synergistic antibacterial activity against multidrug resistant Pseudomonas aeruginosa PA264 in presence of levofloxacin by Checkerboard assay; type: functional, organism-based
Pseudomonas aeruginosa [30] = experiment: Potentiation of fosfomycin-induced antibacterial activity against wild type Pseudomonas aeruginosa PAO1 measured after 18 hrs by CLSI protocol based microbroth dilution method; type: functional, organism-based
Pseudomonas aeruginosa [31] = experiment: Potentiation of levofloxacin-induced antibacterial activity against wild type Pseudomonas aeruginosa PAO1 assessed as levofloxacin MIC measured after 18 hrs by CLSI protocol based microbroth dilution method (reference value: 0.5 ug/ml); type: functional
Pseudomonas aeruginosa [32] = experiment: Potentiation of trimethoprim-induced antibacterial activity against wild type Pseudomonas aeruginosa PAO1 measured after 18 hrs by CLSI protocol based microbroth dilution method; type: functional, organism-based
Pseudomonas aeruginosa [33] = experiment: Additive antibacterial activity against MexAB-OprM, MexCD-OprJ, MexEF-OprN, MexJK and MexXY efflux pumps deficient Pseudomonas aeruginosa PAO750 in presence of moxifloxacin by Checkerboard assay; type: functional, organism-based
Pseudomonas aeruginosa [34] = experiment: Potentiation of levofloxacin-induced antibacterial activity against wild type Pseudomonas aeruginosa PAO1 assessed as […] measured after 18 hrs by CLSI protocol based microbroth dilution method relative to levofloxacin MIC; type: functional
Pseudomonas aeruginosa [35] = experiment: Synergistic antibacterial activity against multidrug resistant Pseudomonas aeruginosa PA264 in presence of moxifloxacin by Checkerboard assay; type: functional, organism-based
Pseudomonas aeruginosa [36] = experiment: Synergistic antibacterial activity against multidrug resistant Pseudomonas aeruginosa PA260 in presence of ciprofloxacin by Checkerboard assay; type: functional, organism-based
Pseudomonas aeruginosa [37] = experiment: Potentiation of novobiocin-induced antibacterial activity against wild type Pseudomonas aeruginosa PAO1 measured after 18 hrs by CLSI protocol based microbroth dilution method; type: functional, organism-based
Pseudomonas aeruginosa [38] = experiment: Synergistic antibacterial activity against multidrug resistant Pseudomonas aeruginosa PA101885 in presence of moxifloxacin by Checkerboard assay; type: functional, organism-based
Pseudomonas aeruginosa [39] = experiment: Synergistic antibacterial activity against multidrug resistant Pseudomonas aeruginosa PA264 in presence of ciprofloxacin by Checkerboard assay; type: functional, organism-based
Pseudomonas aeruginosa [40] = experiment: Additive antibacterial activity against MexAB-OprM, MexCD-OprJ, MexEF-OprN, MexJK and MexXY efflux pumps deficient Pseudomonas aeruginosa PAO750 in presence of levofloxacin by Checkerboard assay; type: functional, organism-based

Question: What does the source list for C[C@H]1COc2c(N3CCN(C)CC3)c(F)cc3c(=O)c(C(=O)NCCCCCCCCCCCC(=O)N[C@@H](CCN)C(=O)N[C@@H](CCN)C(N)=O)cn1c23?
Answer: Activity (Escherichia coli [1]): Active; Activity (Pseudomonas aeruginosa [2]): Active; Activity (Pseudomonas aeruginosa [3]): Active; Activity (Klebsiella pneumoniae [4]): Active; Activity (Pseudomonas aeruginosa [5]): Active; MIC (Pseudomonas aeruginosa [6]): > 128 µg/mL; Activity (Klebsiella pneumoniae [7]): Active; Activity (Pseudomonas aeruginosa [8]): Active; Activity (Pseudomonas aeruginosa [9]): Active; MIC (Enterococcus faecalis): > 128 µg/mL; hemolysis at 1 h, 512 ug/ml [10]: < 1%; fractional inhibitory concentration index (FICI) (Pseudomonas aeruginosa [11]): 0.5; Activity (Pseudomonas aeruginosa [12]): Active; Activity (Pseudomonas aeruginosa [13]): Active; Activity (Pseudomonas aeruginosa [14]): Active; Activity (Pseudomonas aeruginosa [15]): Active; Activity (Escherichia coli [16]): Active; MIC (Pseudomonas aeruginosa [17]): 0.031 µg/mL; MIC (Escherichia coli [18]): 64 µg/mL (≈ 84.4 µM); Activity (Escherichia coli [19]): Active; MIC (Enterobacter cloacae): 128 µg/mL (≈ 169 µM); Activity (Pseudomonas aeruginosa [20]): inactive; Activity (Pseudomonas aeruginosa [21]): Active; Activity (Escherichia coli [22]): Active; MIC (Staphylococcus aureus): 128 µg/mL (≈ 169 µM); MIC (Pseudomonas aeruginosa [23]): 0.25 µg/mL; Activity (Pseudomonas aeruginosa [24]): Active; MIC (Klebsiella pneumoniae [25]): > 128 µg/mL; Ratio (Pseudomonas aeruginosa [26]): 4; Activity (Escherichia coli [27]): Active; Activity (Escherichia coli [28]): Active; Activity (Pseudomonas aeruginosa [29]): Active; Activity (Pseudomonas aeruginosa [30]): Active; MIC (Pseudomonas aeruginosa [31]): 0.063 µg/mL; Activity (Pseudomonas aeruginosa [32]): Active; Activity (Pseudomonas aeruginosa [33]): Active; Ratio (Pseudomonas aeruginosa [34]): 4; Activity (Pseudomonas aeruginosa [35]): Active; Activity (Pseudomonas aeruginosa [36]): Active; Activity (Pseudomonas aeruginosa [37]): Active; Activity (Pseudomonas aeruginosa [38]): Active; Activity (Pseudomonas aeruginosa [39]): Active; Activity (Pseudomonas aeruginosa [40]): Active
